One data set concerns the target T1, potassium channel Kv1.3 (Homo sapiens, UniProt P22001).
T1 construct: expressed in transfected cells; host or cells: COS-7 cells, selected with 0.8 mg/mL geneticin
In words: whole-cell patch clamp, inhibition of Kv1.3 current in transfected COS-7 cells. In kind it is cell-based. To be noted: potassium channel Kv1.3 in COS-7 cells, read-out: polypeptide concentrations that inhibit the current by half (IC50 value). The method, then: COS-7 cells were cultured in a DMEM medium containing 10% fetal calf serum, at 37° C, 5% CO2. The recombinant plasmids of potassium channel Kv1.3 were transfected by using a Sofast™ transfection kit, and the transfected cells were selectively cultured in a medium containing 0.8 mg/mL geneticin. The pharmacological activities of scorpion active polypeptides ADMR-011, ADMR-016, ADMR-019, ADMR-023 and ADMR-028 were tested and analyzed by using an instrument of whole-cell patch clamp (EPC-10 dual-channel patch clamp amplifier HEKA, Elektronik, Lambrecht, Germany). The setting of the experimental parameters, the collecting of data, and the applying of stimulus were all controlled by Pulse software (Elektronik, Lambrecht, Germany). The filter of the instrument was set to be 10 kHz (Bessel), and the electrode impedance was 2∼5 MΩ. After the formation of giga-seal (1∼5 GΩ) between the electrode and cell membrane, an automatic c-fast was performed, and the membrane was broken by slightly applying negative pressure, then an automatic c-slow was performed. At a holding potential of -70 mV, depolarizing pulses, incrementing in 10 mV steps, with a step width of 80 ms , were given to stimulate from -60 mV to +50 mV, and the condition of current was observed. The polypeptides ADMR-011, ADMR-016 and ADMR-019 were accurately perfused, which was achieved by MPS-2 (INBIO Inc, Wuhan, China) perfusing system. After dissolving the three scorpion active polypeptides, they were applied by spraying via DAD Drug Application System (ALA), and the tip of the tube for drug application was about 100 µm away from the cell being recorded.
It can be known from Figure 16 to Figure 20 that, the pharmacological activity of ADMR-011 on potassium channel Kvl.3 was 91 pM, the pharmacological activity of ADMR-016 on potassium channel Kvl.3 was 2.58 nM, the pharmacological activity of ADMR-019 on potassium channel Kv1.3 was 1.41 nM, and the pharmacological activity of ADMR-023 and ADMR-028 on potassium channel Kvl.3 were 0.49 nM and 0.65 nM, respectively. Therefore, they are polypeptides with potent activity that are currently found internationally.

The subject of another data set is Wistar rat EAE model. In words: EAE (multiple sclerosis) model in Wistar rats induced by GPSCH-CFA, clinical scoring. The format is in vivo. To be noted: 100 µg·kg^-1 subcutaneously once every day, x±s, n=10, score 0-5. The text has this:
Experimental animals: female inbred line Wistar rats (6∼8 week old, body weigh 150±10 g) and guinea pigs (300∼400 g, purchased from Wuhan University Laboratory Animal Center) were selected.
Formulating a mixed emulsion of whole spinal cord homogenate - Freund's complete adjuvant (GPSCH-CFA): a guinea pig was executed, and the spinal cord was rapidly removed, and prepared into 50% PBS homogenate by a ultrasonic disruptor (Sonics & Materials Inc, America), which was mixed with equal amount of Freund's complete adjuvant (BCG vaccine 10 mg/ml), and was pushed back and forth with syringes until forming a water-in-oil emulsion.
Wistar rat EAE model induced by EAE: GPSCH-CFA emulsion was injected intradermally into the foot pads of both the hind legs of Wistar rats, or simultaneously injected intradermally about 1×10^10 pertussis vaccine. The rats were weighed every day, and observed for their neurological symptoms. Experimental autoimmune encephalomyelitis appeared after the rats had been raised for 2 weeks.
The rats with experimental autoimmune encephalomyelitis (EAE) were divided into […] groups randomly: normal control group (negative control group), model control group (model rats + normal saline), administration group A (model rats + ADMR-011 polypeptide), administration group B (model rats + ADMR-016 polypeptide), administration group C (model rats + ADMR-019 polypeptide), administration group D (model rats + ADMR-023 polypeptide), and administration group E (model rats + ADMR-028 polypeptide), 10 rats for each group. For the administration groups, polypeptides ADMR-011, ADMR-016, ADMR-019, ADMR-023 and ADMR-028 were injected subcutaneously respectively at a dose of 100 µg·kg^-1, once every day in the morning. For the normal control group and the model control group, equivalent amount of normal saline was injected subcutaneously, and administered continuously. […] The highest clinical score for each animal was recorded, and the average value of them was taken to be the average clinical score.
The scoring criteria were: without any clinical symptom, 0 point; disappearance of tension in the tail, and observable mild awkward gait, 1 point; weakness in both the hind limbs, which can recover after passive body flipping, 2 points; paralysis in both the hind limbs, which can not recover after passive body flipping, 3 points; tetraplegia accompanied by incontinence of urine and feces, 4 points; moribund state or death, 5 points. Table 1. Scores for rats of various experimental groups in the EAE model (-x±s)

Another data set concerns Kunming mice. Nature of the data set: toxicity study in mice, single intraperitoneal injection, 7 days observation. In kind it is in vivo. To be noted: 10 mg/kg intraperitoneally once (100 times the dose for animal model), observed 7 days. The procedure: 18∼20 g Kunming mice were selected, and divided into 4 groups, 8 male mice and 8 female mice for each group. The lyophilized powders of scorpion active polypeptides ADMR-011, ADMR-016, ADMR-019, ADMR-023 and ADMR-028 were dissolved with normal saline respectively, and the 3 groups of mice were injected intraperitoneally once respectively with polypeptide solution at a dose of 10 mg/kg (100 times of the dose for animal model), and the fourth group were injected with equivalent amount of normal saline as control.
After the administration, the respiration, motor and heartbeat in animals of all the groups were all normal, without significant abnormal reaction. 7 days after the administration, all the animals were conducted gross anatomy to observe the volume, color and texture of the main organs (heart, liver, spleen, lung, and kidney), and there was no macroscopic lesion. There were no significant difference between the 3 administration groups and the normal saline group.

The next data set has as its system rheumatoid arthritis. Nature of the data set: pristane-induced rheumatoid arthritis in SD rats, joint score and hind foot plantar swelling. In kind it is in vivo. The arrangement: key to Score of joint: clinical score 1-4: 1 joint red/swollen=1 ... severe whole-limb arthritis=4. To be noted: x±s, n=10; for Score of joint: arthritis rats, polypeptides 100 µg·kg^-1 (methotrexate 1.75 µg·kg^-1) subcutaneously once every day, score 1-4; for The swelling degree after the inflammation: volume difference of hind foot before and after the modeling. The method, then:
[…] Female (♀) specific pathogen free (SPF) inbred line SD rats (Wuhan University Laboratory Animal Center), body weight 150±10 g, were selected, and pristane was injected intradermally at the base of the tail of rats in experimental groups at a dose of 0.2 ml/rat, after they were acclimatized in a clean-grade environment for 1 week. Rheumatoid arthritis appeared after the rats were raised for only 2 weeks.
The rats having arthritis were randomized into: normal control group (negative control group), model negative control group (model rat + normal saline), model positive control group (model rat + methotrexate), administration group A (model rat + ADMR-011 polypeptide), administration group B (model rat + ADMR-016 polypeptide), administration group C (model rat + ADMR-019 polypeptide), administration group D (model rat + ADMR-023 polypeptide), and administration group E (model rat + ADMR-028 polypeptide), 10 rats for each group. The administration groups were injected subcutaneously at a dose of 100 µg·kg^-1, once every day in the morning, and administered continuously; the normal control group and the model negative control group were injected subcutaneously with equivalent amount of normal saline; and the model positive control group were injected subcutaneously with methotrexate (MTX) at a dose of 1.75 µg·kg^-1, once every day, and administered continuously.
The highest clinical score for each animal was recorded, and the average value of them was taken to be the average clinical score. The scoring criteria were: one joint of a rat was red and swollen, 1 point; two joints of a rat were red and swollen, 2 points; all the joints of a rat were red and swollen, 3 points; severe arthritis in the entire limb of a rat, 4 points. Table 2. Arthritis scores for rats of various experimental groups (-x±s)
From day 8 of the experiment, the hind foot plantar volume of the rat was measured and recorded every other day for 21 consecutive days, and the swelling degree (mL) was calculated according to the volume difference before and after the modeling. Table 3. The swelling degree of rats in various experimental groups (-x±s)

Molecules are shown by their SMILES. Bridge positions count the residues as written; N and C are the ends. Peptide text beside a SMILES is read from it.

T1 sequence (P22001 whole entry): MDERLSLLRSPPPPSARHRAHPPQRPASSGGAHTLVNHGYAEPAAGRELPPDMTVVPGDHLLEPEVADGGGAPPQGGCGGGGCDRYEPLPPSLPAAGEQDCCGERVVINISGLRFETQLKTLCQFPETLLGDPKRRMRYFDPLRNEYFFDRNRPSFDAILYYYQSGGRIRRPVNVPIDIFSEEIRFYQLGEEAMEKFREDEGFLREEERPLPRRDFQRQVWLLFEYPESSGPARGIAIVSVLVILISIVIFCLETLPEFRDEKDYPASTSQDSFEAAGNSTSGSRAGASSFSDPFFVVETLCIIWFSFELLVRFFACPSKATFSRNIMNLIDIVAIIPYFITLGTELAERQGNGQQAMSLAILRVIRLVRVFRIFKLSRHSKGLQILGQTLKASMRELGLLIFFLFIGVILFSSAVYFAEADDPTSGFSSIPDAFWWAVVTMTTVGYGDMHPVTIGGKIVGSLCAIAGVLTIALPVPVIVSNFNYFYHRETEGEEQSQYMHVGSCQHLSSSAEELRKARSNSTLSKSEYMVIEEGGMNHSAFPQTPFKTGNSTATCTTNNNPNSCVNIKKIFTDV

`CC[C@H](C)[C@H](NC(=O)CNC(=O)[C@@H](N)C(C)C)C(=O)N[C@@H](CC(N)=O)C(=O)N[C@H](C(=O)N[C@@H](CCC(N)=O)C(=O)N[C@H]1CSSC[C@@H]2NC(=O)[C@H](CCC(N)=O)NC(=O)CNC(=O)[C@H](Cc3ccccc3)NC(=O)[C@H](CCCNC(=N)N)NC(=O)[C@H](CCSC)NC(=O)CNC(=O)[C@H](C)NC(=O)[C@H](CC(=O)O)NC(=O)[C@H](CCCCN)NC(=O)[C@@H]3CSSC[C@@H](C(=O)N[C@H](C(=O)N4CCC[C@H]4C(=O)N[C@@H](CCCCN)C(=O)O)[C@@H](C)O)NC(=O)[C@H](CC(=O)O)NC(=O)[C@H](CSSC[C@H](NC(=O)[C@H](CCC(N)=O)NC(=O)[C@H](CCCNC(=N)N)NC(=O)[C@H](CO)NC(=O)CNC(=O)[C@H](CC(N)=O)NC1=O)C(=O)N[C@@H](CC(C)C)C(=O)N[C@@H](CCCCN)C(=O)N1CCC[C@H]1C(=O)N3)NC(=O)[C@H]([C@@H](C)O)NC(=O)CNC(=O)[C@H](CC(N)=O)NC(=O)[C@H]([C@@H](C)CC)NC2=O)C(C)C` [ADMR-019] (H-VGINVQCNGSRQCLKPCKDAGMRFGQCINGTCDCTPK-OH; disulfide 7-27, 13-32, 17-34 (inferred); N-terminus and C-terminus assumed): on potassium channel Kv1.3, the IC50 came out at 1.41 nM. Moreover, the Average clinical scores in the data set with Wistar rat EAE model (8 d) is on record as 0.53±0.16; with Wistar rat EAE model (10 d) it was 0.93±0.46; in the data set with Wistar rat EAE model (12 d) it was 1.19±0.51; in the data set on Wistar rat EAE model (14 d), 1.37±0.34. The toxicity in mice entry with Kunming mice was “no significant toxicity”. In addition, the Score of joint in the data set with rheumatoid arthritis (10 d) amounted to 1.78±0.48; in the data set with rheumatoid arthritis (15 d) it was 2.17±0.55; in the data set on rheumatoid arthritis (21 d), 1.81±0.77. The “The swelling degree after the inflammation” value was found to be 0.034 ± 0.011 mL in the data set with rheumatoid arthritis (d8), 0.27 ± 0.07 mL in the data set on rheumatoid arthritis (d15), 0.34 ± 0.11 mL in the data set on rheumatoid arthritis (d22) and 0.37 ± 0.13 mL in the data set on rheumatoid arthritis (d28).
Consider `CC[C@H](C)[C@H](NC(=O)CNC(=O)[C@@H](N)C(C)C)C(=O)N[C@@H](CC(N)=O)C(=O)N[C@H](C(=O)N[C@@H](CCC(N)=O)C(=O)N[C@H]1CSSC[C@@H]2NC(=O)[C@H](CCC(N)=O)NC(=O)CNC(=O)[C@H](Cc3ccccc3)NC(=O)[C@H](CCCNC(=N)N)NC(=O)[C@H](CCSC)NC(=O)CNC(=O)[C@H](C)NC(=O)[C@H](CC(=O)O)NC(=O)[C@H](CCCCN)NC(=O)[C@@H]3CSSC[C@@H](C(=O)N[C@H](C(=O)N4CCC[C@H]4C(=O)N[C@@H](CCCCN)C(=O)O)[C@@H](C)O)NC(=O)[C@H](CC(=O)O)NC(=O)[C@H](CSSC[C@H](NC(=O)[C@H](CCC(N)=O)NC(=O)CNC(=O)[C@H](CO)NC(=O)[C@H](Cc4c[nH]cn4)NC(=O)[C@H](CC(N)=O)NC1=O)C(=O)N[C@@H](CC(C)C)C(=O)N[C@@H](CCCCN)C(=O)N1CCC[C@H]1C(=O)N3)NC(=O)[C@H](CCCCN)NC(=O)CNC(=O)[C@H](CC(N)=O)NC(=O)[C@H]([C@@H](C)CC)NC2=O)C(C)C` [ADMR-023] (H-VGINVQCNHSGQCLKPCKDAGMRFGQCINGKCDCTPK-OH; disulfide 7-27, 13-32, 17-34 (inferred); N-terminus and C-terminus assumed), for which, on potassium channel Kv1.3, the IC50 turned out to be 0.49 nM. Moreover, the Average clinical scores in the data set on Wistar rat EAE model (8 d) is reported as 0.55±0.19; in the data set with Wistar rat EAE model (10 d) it was 0.81±0.29; in the data set with Wistar rat EAE model (12 d) it was 1.21±0.25; with Wistar rat EAE model (14 d) it was 1.17±0.27. In addition, in the data set with Kunming mice, the toxicity in mice result was “no significant toxicity”. Moreover, the figures for the Score of joint with rheumatoid arthritis (10 d), in the data set on rheumatoid arthritis (15 d) and in the data set with rheumatoid arthritis (21 d) were 1.69±0.23, 2.23±0.71 and 1.85±0.59, respectively. Besides, the “The swelling degree after the inflammation” value in the data set with rheumatoid arthritis (d8) was 0.035 ± 0.010 mL; in the data set on rheumatoid arthritis (d15) it was 0.25 ± 0.08 mL; in the data set with rheumatoid arthritis (d22), 0.32 ± 0.14 mL; in the data set with rheumatoid arthritis (d28), 0.29 ± 0.15 mL.

The values above are taken from EP2653477B1, “SCORPION ACTIVE PEPTIDES AND PREPARATION METHODS AND APPLICATIONS THEREOF” (Wuhan More Biotechnology Co., Ltd., priority 2010, dated 2012).
